In ChEMBL document CHEMBL5053484, “Structure-Based Identification of Potent Lysine-Specific Demethylase 1 Inhibitor Peptides and Temporary Cyclization to Enhance Proteolytic Stability and Cell Growth-Inhibitory Activity” (J Med Chem, 2021) one finds IC50 and Ki data, which are given here for five compounds.

Structures are written as SMILES. Residues, ends and D or L forms follow the SMILES beside them.

For assay [1], the system named is WI-38. Briefly: Antiproliferative activity against human WI-38 cells after 72 hrs by alamarBlue assay. The class given is cell-based. The conditions noted are these: WI-38, 72 h.
In assay [2] the target is LSD1/CoREST complex (Homo sapiens, UniProt O60341). Kind of assay: Inhibition of human LSD1/CoREST. Format: protein-complex assay.
Assay [3] relates to HL-60. Briefly: cells. To be noted: Homo sapiens, HL-60, 72 h.
Description: Antiproliferative activity against human HL-60 cells measured after 72 hrs by alamarBlue assay

Consider `CN1CCN(C(=O)CNC2CC2c2cc(F)cc(F)c2OCc2ccccc2)CC1` (centres undefined), for which the half-inhibitory concentration (IC50) in assay [1] is greater than 50 µM.

For `N=C(N)NCCC[C@H](NC(=O)[C@H](CCCNC(=N)N)NC(=O)[C@H](CCCNC(=N)N)NC(=O)[C@H](CCCNC(=N)N)NC(=O)[C@H](CCCNC(=N)N)NC(=O)[C@H](CCCNC(=N)N)NC(=O)[C@H](CCCNC(=N)N)NC(=O)[C@H](CCCNC(=N)N)NC(=O)[C@H](CCCNC(=N)N)NC(=O)[C@H](CCCNC(=N)N)NC(=O)c1cc(OCc2cn(CCO)nn2)cc(OCc2cn(CCO)nn2)c1)C(N)=O`, the affinity in assay [2], expressed as Ki, was 0.17 µM. This compound gave an IC50 in assay [3] greater than 100 µM. As for `CC(C)C[C@@H]1NC(=O)[C@H](Cc2ccccc2)NC(=O)[C@H](CO)NC(=O)[C@H](CCCNC(=N)N)NC(=O)[C@@H]2CCCN2C(=O)OCCSSCCn2cc(nn2)COc2cc(cc(C(=O)N[C@@H](CCCNC(=N)N)C(=O)N[C@@H](CCCNC(=N)N)C(=O)N[C@@H](CCCNC(=N)N)C(=O)N[C@@H](CCCNC(=N)N)C(=O)N[C@@H](CCCNC(=N)N)C(=O)N[C@@H](CCCNC(=N)N)C(=O)N[C@@H](CCCNC(=N)N)C(=O)N[C@@H](CCCNC(=N)N)C(=O)N[C@@H](CCCNC(=N)N)C(=O)N[C@@H](CCCNC(=N)N)C(N)=O)c2)OCc2cn(nn2)CCSSCCOC(=O)NCCCC[C@@H](C(N)=O)NC(=O)[C@H](CCCNC(=N)N)NC(=O)[C@H](CCCNC(=N)N)NC(=O)[C@H](C(C)C)NC1=O`, the IC50 in assay [1] stood at 41 µM; in assay [3], 5.2 µM. Take `CC(C)C[C@@H]1NC(=O)[C@H](Cc2ccccc2)NC(=O)[C@H](CO)NC(=O)[C@H](CCCNC(=N)N)NC(=O)[C@@H]2CCCN2C(=O)OCCOCCn2cc(nn2)COc2cc(cc(C(=O)N[C@@H](CCCNC(=N)N)C(=O)N[C@@H](CCCNC(=N)N)C(=O)N[C@@H](CCCNC(=N)N)C(=O)N[C@@H](CCCNC(=N)N)C(=O)N[C@@H](CCCNC(=N)N)C(=O)N[C@@H](CCCNC(=N)N)C(=O)N[C@@H](CCCNC(=N)N)C(=O)N[C@@H](CCCNC(=N)N)C(=O)N[C@@H](CCCNC(=N)N)C(=O)N[C@@H](CCCNC(=N)N)C(N)=O)c2)OCc2cn(nn2)CCOCCOC(=O)NCCCC[C@@H](C(N)=O)NC(=O)[C@H](CCCNC(=N)N)NC(=O)[C@H](CCCNC(=N)N)NC(=O)[C@H](C(C)C)NC1=O`: the IC50 is greater than 100 µM in assay [1] and 17 µM in assay [3]. In the case of `CC(C)C[C@H](NC(=O)[C@H](Cc1ccccc1)NC(=O)[C@H](CO)NC(=O)[C@H](CCCNC(=N)N)NC(=O)[C@@H]1CCCN1)C(=O)N[C@H](C(=O)N[C@@H](CCCNC(=N)N)C(=O)N[C@@H](CCCNC(=N)N)C(=O)N[C@@H](CCCCN)C(=O)O)C(C)C` (H-PRSFLVRRK-OH), the IC50 in assay [1] and in assay [3] was greater than 100 µM in each case.
